Assay results: PubChem BioAssay (NCI)
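All cell lines were grown in 96-well plates and treated with compound for 48 hours. The concentration for 50% growth inhibition is given as GI50. TGI marks complete inhibition of growth.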

system: HCT-15 colon; experiment: DTP human tumour cell line panel, 48 h

Compound | TGI
O=C(NN1C(=O)CSC1c1ccc(Cl)c(Cl)c1)c1ccncc1 (configuration not stated) | > 100 µM
CNc1ccc2c(c1)Cc1ccccc1-2 | > 100 µM
CCOC(=O)c1csc(NC(=O)CCCC#N)n1 | > 100 µM
O=c1cc(-c2ccccc2F)[nH]c2cc3c(cc12)OCO3 | 4.22 µM
CCOC(=O)C(C)NC(=O)N(C)C12CC3CC(CC(C3)C1)C2 (configuration not stated) | 490 µM
O=c1c2cc3c(=O)n(CCc4ccccc4CO)c(=O)c3cc2c(=O)n1CCc1ccccc1CO | > 100 µM
COC(=O)c1sc2ncc3c(c2c1N)CC(C)CC3 (configuration not stated) | > 100 µM
CC1=CCC[C@H]2[C@](C)(CC3=CC(=O)C4SCCSC4C3=O)[C@@H](C)CC[C@]12C (some centres not stated) | 67.1 µM
COC(=O)C1=C(C(=O)OC)C2(C)CCC(=O)C1O2 (configuration not stated) | > 10 µM
N/C(CSCCSC/C(N)=N/O)=N\O | > 100 µM

system: UACC-62 melanoma; experiment: DTP human tumour cell line panel, 48 h

Compound | TGI | GI50
CC(O)(C(=O)N(O)c1ccc(Cl)cc1)c1ccc(Cl)cc1 (configuration not stated) | > 100 µM | 
CCOP(=O)(OCC)c1cc(-c2ccccc2)ccc1N | > 100 µM | 
CC1(C)[C@@H]2C[C@H]1c1cnc(-c3ccccn3)cc1[C@H]2C(O)[C@@H]1c2cc(-c3ccccn3)ncc2[C@H]2C[C@@H]1C2(C)C (some centres not stated) | 7.66 µM | 
CC1(C)OC(CCO)CN1C(=O)OCc1ccccc1 (configuration not stated) | > 100 µM | 
CCOC(=O)C1=C(C)NC(=O)N([N+](=O)[O-])C1c1ccccc1C(F)(F)F (configuration not stated) | > 100 µM | 
O=c1c(Cc2ccccc2)c(-c2ccccc2)[nH]n1C1=NCCN1 | > 100 µM | 
OC(c1ccco1)C(F)(F)c1nc2ccccc2o1 (configuration not stated) | > 100 µM | 
CN1c2ccccc2C(=O)NC12CCN(CC1COc3ccccc3O1)CC2 (configuration not stated) | > 100 µM | 
Cc1cn(C2CC(OC(c3ccccc3)(c3ccccc3)c3ccccc3)C(COC(c3ccccc3)(c3ccccc3)c3ccccc3)O2)c(=O)[nH]c1=O (configuration not stated) | > 100 µM | 
CCOC(=O)C(NC(=O)c1ccc(N=NN(C)C)cc1)C(C)C (configuration not stated) | > 100 µM | 
COc1cc(CCCOC2OC(COC3OCC(O)C(O)C3O)C(O)C(O)C2O)cc2cc(-c3ccc4c(c3)OCO4)oc12 (configuration not stated) | > 175 µM | 
CCOC(=O)c1ccc(C(=O)/C(C(=O)OC(C)(C)C)=C2\CCCN2C)n1C | > 100 µM | 
O=C1c2c(c3c4ccc(Br)cc4oc3c3[nH]c4ccccc4c23)C(=O)N1O | 3.94 µM | 1.52 µM
O=CN(O)CC(=O)O | > 100 µM | 
CCOC(=O)c1c(NC(=S)Nc2ccc(C)cc2)sc2c1CCN(C)C2 | > 100 µM | 
c1ccc([P+](Cc2csnn2)(c2ccccc2)c2ccccc2)cc1 | > 100 µM | 

Compound | TGI | GI50
c1ccc(-c2ccc(N=NN3CCCC3)cc2)cc1 | > 100 µM | 
NNC(=O)c1cccc2c1Oc1ccccc1S2 | > 100 µM | 
NC(=S)N=Nc1c(O)cc(Nc2ccc(Cl)cc2Cl)c2ccccc12 | 29.4 µM | 
CCC1(CC)C(=O)NC(=S)N=C1N | > 100 µM | 
CCCC[C@@H]1CCN2C[C@@H](O)[C@@H](O)[C@H]2[C@@H]1O | > 100 µM | 
O=C(NN1C(=O)CSC1c1ccc(Cl)c(Cl)c1)c1ccncc1 (configuration not stated) | > 100 µM | 
CNc1ccc2c(c1)Cc1ccccc1-2 | 89.7 µM | 
CCOC(=O)c1csc(NC(=O)CCCC#N)n1 | > 100 µM | 
O=c1cc(-c2ccccc2F)[nH]c2cc3c(cc12)OCO3 | > 100 µM | 
CCOC(=O)C(C)NC(=O)N(C)C12CC3CC(CC(C3)C1)C2 (configuration not stated) | > 474 µM | 
O=c1c2cc3c(=O)n(CCc4ccccc4CO)c(=O)c3cc2c(=O)n1CCc1ccccc1CO | > 100 µM | 
COC(=O)c1sc2ncc3c(c2c1N)CC(C)CC3 (configuration not stated) | > 100 µM | 
CCc1cc(=O)n(/C(C)=C/c2ccccc2)n1C | > 100 µM | 
CC1=CCC[C@H]2[C@](C)(CC3=CC(=O)C4SCCSC4C3=O)[C@@H](C)CC[C@]12C (some centres not stated) | 39.9 µM | 
COC(=O)C1=C(C(=O)OC)C2(C)CCC(=O)C1O2 (configuration not stated) | > 10 µM | 
N/C(CSCCSC/C(N)=N/O)=N\O | > 100 µM | 

system: SK-MEL-5 melanoma; experiment: DTP human tumour cell line panel, 48 h

Compound | TGI | GI50
CC(O)(C(=O)N(O)c1ccc(Cl)cc1)c1ccc(Cl)cc1 (configuration not stated) | 48.9 µM | 
CCOP(=O)(OCC)c1cc(-c2ccccc2)ccc1N | > 100 µM | 
CC1(C)[C@@H]2C[C@H]1c1cnc(-c3ccccn3)cc1[C@H]2C(O)[C@@H]1c2cc(-c3ccccn3)ncc2[C@H]2C[C@@H]1C2(C)C (some centres not stated) | 1.42 µM | 
CC1(C)OC(CCO)CN1C(=O)OCc1ccccc1 (configuration not stated) | > 100 µM | 
CCOC(=O)C1=C(C)NC(=O)N([N+](=O)[O-])C1c1ccccc1C(F)(F)F (configuration not stated) | > 100 µM | 
O=c1c(Cc2ccccc2)c(-c2ccccc2)[nH]n1C1=NCCN1 | > 100 µM | 
Brc1ccc2c(c1)-c1nc3c(cc1CC2)CCc1ccc(Br)cc1-3 | > 100 µM | 
OC(c1ccco1)C(F)(F)c1nc2ccccc2o1 (configuration not stated) | > 100 µM | 
CN1c2ccccc2C(=O)NC12CCN(CC1COc3ccccc3O1)CC2 (configuration not stated) | 41.5 µM | 
Cc1cn(C2CC(OC(c3ccccc3)(c3ccccc3)c3ccccc3)C(COC(c3ccccc3)(c3ccccc3)c3ccccc3)O2)c(=O)[nH]c1=O (configuration not stated) | > 100 µM | 
CCOC(=O)C(NC(=O)c1ccc(N=NN(C)C)cc1)C(C)C (configuration not stated) | > 100 µM | 
COc1cc(CCCOC2OC(COC3OCC(O)C(O)C3O)C(O)C(O)C2O)cc2cc(-c3ccc4c(c3)OCO4)oc12 (configuration not stated) | > 175 µM | 
CCOC(=O)c1ccc(C(=O)/C(C(=O)OC(C)(C)C)=C2\CCCN2C)n1C | 52.9 µM | 
O=C1c2c(c3c4ccc(Br)cc4oc3c3[nH]c4ccccc4c23)C(=O)N1O | 3.27 µM | 1.48 µM
O=CN(O)CC(=O)O | > 100 µM | 
C(=N/Nc1ccc(-c2nc3ccccc3[nH]2)cc1)/c1c(-c2ccccc2)[nH]c2ccccc12 | > 100 µM | 
CCOC(=O)c1c(NC(=S)Nc2ccc(C)cc2)sc2c1CCN(C)C2 | > 100 µM | 

Compound | TGI | GI50
c1ccc([P+](Cc2csnn2)(c2ccccc2)c2ccccc2)cc1 | > 100 µM | 
c1ccc(-c2ccc(N=NN3CCCC3)cc2)cc1 | > 100 µM | 
NNC(=O)c1cccc2c1Oc1ccccc1S2 | > 100 µM | 
NC(=S)N=Nc1c(O)cc(Nc2ccc(Cl)cc2Cl)c2ccccc12 | 95.8 µM | 
CCCC[C@@H]1CCN2C[C@@H](O)[C@@H](O)[C@H]2[C@@H]1O | > 100 µM | 
O=C(NN1C(=O)CSC1c1ccc(Cl)c(Cl)c1)c1ccncc1 (configuration not stated) | > 100 µM | 
CNc1ccc2c(c1)Cc1ccccc1-2 | 74.7 µM | 
CCOC(=O)c1csc(NC(=O)CCCC#N)n1 | > 100 µM | 
O=c1cc(-c2ccccc2F)[nH]c2cc3c(cc12)OCO3 | 4.41 µM | 
CCOC(=O)C(C)NC(=O)N(C)C12CC3CC(CC(C3)C1)C2 (configuration not stated) | 286 µM | 
O=c1c2cc3c(=O)n(CCc4ccccc4CO)c(=O)c3cc2c(=O)n1CCc1ccccc1CO | > 100 µM | 
COC(=O)c1sc2ncc3c(c2c1N)CC(C)CC3 (configuration not stated) | > 100 µM | 
CCc1cc(=O)n(/C(C)=C/c2ccccc2)n1C | > 100 µM | 
CC1=CCC[C@H]2[C@](C)(CC3=CC(=O)C4SCCSC4C3=O)[C@@H](C)CC[C@]12C (some centres not stated) | 26.7 µM | 
COC(=O)C1=C(C(=O)OC)C2(C)CCC(=O)C1O2 (configuration not stated) | > 10 µM | 
N/C(CSCCSC/C(N)=N/O)=N\O | > 100 µM | 
